Patent US4584305A, “Aiding the regression of neoplastic disease with 2,3,5,6-tetrahydro-6-phenylimidazo[2,1-b]thiazole” (Janssen Pharmaceutica N.V., priority 1981, dated 1986)

Assay: Toxicity (mouse LD50)
Format: in vivo

SMILES: c1ccc(C2CN3CCSC3=N2)cc1 (stereo not shown) [levamisole, 2,3,5,6-tetrahydro-6-phenyl-imidazo[2,1-b]thiazole]
- toxicity: devoid of toxicity
